The text below walks through data of publication PMC8394412, “Identification and Characterization of Cannabidiol as an OX1R Antagonist by Computational and In Vitro Functional Validation” (Biomolecules, 2021).

The experiment addresses T1, orexin 1 receptor (OX1R) (Homo sapiens, UniProt O43613).
T1 construct: gene HCRTR1
T1 sequence (O43613 1-425): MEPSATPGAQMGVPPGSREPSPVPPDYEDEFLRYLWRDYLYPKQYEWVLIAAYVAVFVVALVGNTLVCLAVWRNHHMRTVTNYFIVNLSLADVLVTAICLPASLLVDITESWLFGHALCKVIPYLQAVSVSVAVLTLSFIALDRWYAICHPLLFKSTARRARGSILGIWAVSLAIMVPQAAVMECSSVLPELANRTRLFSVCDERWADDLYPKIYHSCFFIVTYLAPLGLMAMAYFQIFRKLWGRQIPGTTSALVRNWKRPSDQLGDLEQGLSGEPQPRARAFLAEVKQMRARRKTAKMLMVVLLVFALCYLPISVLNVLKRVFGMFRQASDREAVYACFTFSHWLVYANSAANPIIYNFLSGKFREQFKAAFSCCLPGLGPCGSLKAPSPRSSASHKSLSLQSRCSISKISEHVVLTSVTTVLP
As to the kind of experiment: […]orexin-A radioligand displacement on OX1R-CHO membranes; functional Ca2+ antagonism IC50 […]. Format: binding. On the technique in general: In a radioligand displacement assay an active substance lowers the binding of a labelled ligand.

Broadly, the Ki is the dissociation constant of the complex between target and ligand, obtained from inhibition or displacement. On to `C=C(C)[C@@H]1CCC(C)=C[C@H]1c1c(O)cc(CCCCC)cc1O` [CBD, cannabidiol], for which the affinity, expressed as Ki, was 1.58 ± 0.2 µM.
